Eleven compounds from ChEMBL document CHEMBL1156723, “Structure-activity relationship study on a novel series of cyclopentane-containing macrocyclic inhibitors of the hepatitis C virus NS3/4A protease leading to the discovery of TMC435350” (Bioorg Med Chem Lett, 2008) can be followed below.

What is called Ki is the dissociation constant of the complex between target and ligand, obtained from inhibition or displacement. A word on the EC50: it is the concentration at which the effect is half-maximal. What is called microsomal CLint is the capacity of the preparation to metabolise the compound, expressed as a volume cleared per time. One may read the AUC as the area under the concentration-time curve, a measure of exposure. Read a low AUC as less exposure. In general, Kp refers to tissue or fluid exposure divided by exposure in the circulation. For orientation: Cmax means the peak of the concentration-time curve. In general, Tmax refers to the time from dosing to the highest level. Usually half-life stands for the time in which the quantity being followed falls by half. Higher therefore signals slow loss. The bioavailability is dose-corrected exposure relative to a reference, in per cent. Low values mean little systemic uptake, high ones much systemic uptake.

The nature of series [1]: Inhibition of recombinant full length HCV NS3/4A protease. Further details: species or system Hepacivirus hominis.
The test system of a further series is Hepatitis C virus. The series can be described thus: Antiviral activity against HCV in human Huh7 cells assessed as luciferase activity. The class given is functional, organism-based, Hepacivirus hominis. The note with it: Huh-7.
Series [2] in a line: Metabolic stability in human liver microsomes assessed as intrinsic clearance. The class given is ADME, Microsome. In general terms: Microsomes from liver hold many membrane-bound enzymes, among them those of drug oxidation.
The nature of series [3]: Bile excretion of compound in rat at 1 mg/kg, iv after 1 hr. The series is classed as ADME, organism-based. Further details: dose 1 mg/kg, route intravenous. The note with it: read-out: Activity.
The subject of another series is Liver microsomes. The series can be described thus: Metabolic stability in rat liver microsomes assessed as intrinsic clearance. The class given is ADME, Microsome.
Series [4] in a line: Clearance in Sprague-Dawley rat at 2 mg/kg, iv. More on the design: dose 2 mg/kg, route intravenous. The class given is ADME, organism-based. The note with it: in vivo.
Series [5] in a line: Volume of distribution at steady state in Sprague-Dawley rat at 2 mg/kg, iv. The class given is ADME, organism-based. The note with it: in vivo, read-out: Vdss. Further details: dose 2 mg/kg, route intravenous.
Series [6] is described as follows: AUC in Sprague-Dawley rat at 2 mg/kg, iv. The class given is ADME, organism-based. More on the design: dose 2 mg/kg, route intravenous. The following applies: plasma.
The nature of series [7]: Ratio of drug level in liver to plasma in Sprague-Dawley rat at 2 mg/kg, iv after 8 hrs. The class given is ADME, organism-based. More on the design: dose 2 mg/kg, route intravenous.
A short description of series [8]: AUC in Sprague-Dawley rat at 10 mg/kg, po. The series is classed as ADME, organism-based. More on the design: dose 10 mg/kg, route oral. The following applies: plasma.
A short description of series [9]: Cmax in Sprague-Dawley rat at 10 mg/kg, po. The class given is ADME, organism-based. The following applies: in vivo. More on the design: dose 10 mg/kg, route oral.
Series [10] is described as follows: Tmax in Sprague-Dawley rat at 10 mg/kg, po. The series is classed as ADME, organism-based. Further details: dose 10 mg/kg, route oral. The following applies: in vivo.
Series [11] is described as follows: Half life in Sprague-Dawley rat at 10 mg/kg, po. The series is classed as ADME, organism-based. More on the design: dose 10 mg/kg, route oral. The following applies: in vivo.
Series [12] in a line: Oral bioavailability in Sprague-Dawley rat at 10 mg/kg, po. The class given is ADME, organism-based. The note with it: in vivo.
The nature of series [13]: Ratio of drug level in liver to plasma in Sprague-Dawley rat at 10 mg/kg, po after 8 hrs. The series is classed as ADME, organism-based. More on the design: dose 10 mg/kg, route oral.
A short description of series [14]: Ratio of drug level in liver to plasma in Sprague-Dawley rat at 2 mg/kg, iv after 6 hrs. The series is classed as ADME, organism-based. More on the design: dose 2 mg/kg, route intravenous.
A short description of series [15]: Ratio of drug level in liver to plasma in Sprague-Dawley rat at 10 mg/kg, po after 6 hrs. The series is classed as ADME, organism-based. More on the design: dose 10 mg/kg, route oral.

On to `C=C[C@@H]1C[C@]1(NC(=O)[C@@H]1C[C@@H](Oc2cc(-c3ccccc3)nc3cc(OC)ccc23)C[C@H]1C(=O)N[C@H](C(=O)N[C@H](C(=O)NC)C1CCCCC1)C(C)(C)C)C(=O)O`, for which the Ki in [1] is 22 nM.

For `COc1ccc2c(O[C@@H]3C[C@H]4C(=O)N[C@]5(C(=O)NS(=O)(=O)C6CC6)C[C@H]5/C=C\CCCCN(C)C(=O)[C@@H]4C3)cc(-c3ccccc3)nc2c1`, the Ki in series [1] is 0.41 nM. Further, the EC50 in the series on Hepatitis C virus was determined as 9 nM. Moreover, the microsomal CLint in [2] turned out to be 46 µL/min/mg. Also, the dose excreted at 1 h in series [3] is 95%. Besides, in the series with Liver microsomes, the clearance was determined as 46 µL/min/mg.

Regarding `COc1ccc2c(O[C@@H]3C[C@H]4C(=O)N[C@]5(C(=O)NS(=O)(=O)C6CC6)C[C@H]5/C=C\CCCCN(C)C(=O)[C@@H]4C3)cc(-n3ccc(C(C)C)n3)nc2c1C`, in [1], the Ki is 0.16 nM. The EC50 in the series with Hepatitis C virus amounted to 9.7 nM. Also, the microsomal CLint in [2] is < 6 µL/min/mg. Further, in series [4], the clearance is 41.7 mL/min/kg. The Vd in [5] amounted to 4.6 L/kg. For the same compound, the area under the curve (AUC) in series [6] was 1.05 µM·h; in series [8], 1.3 µM·h. Moreover, the partition ratio (Kp) at 8 h in [7] was 23.5; in series [13] it was 44. In series [9], this compound returned a Cmax of 310 nM. Besides, in [10], the Tmax turned out to be 1.5 h. In series [11], this compound showed a half-life of 132 min. In [12], this compound came in with a bioavailability of 25%.

On to `COc1ccc2c(O[C@@H]3C[C@H]4C(=O)N[C@]5(C(=O)NS(=O)(=O)C6CC6)C[C@H]5/C=C\CCCCN(C)C(=O)[C@@H]4C3)cc(-c3nc(C(C)C)cs3)nc2c1F`, for which the Ki in [1] came out at 0.55 nM. For the same compound, the EC50 with Hepatitis C virus worked out at 57 nM.

As for `COc1ccc2c(O[C@@H]3C[C@H]4C(=O)N[C@]5(C(=O)NS(=O)(=O)C6CC6)C[C@H]5/C=C\CCCCN(C)C(=O)[C@@H]4C3)cc(-c3nc(C(C)C)cs3)nc2c1`, the Ki in [1] is 0.84 nM. Also, in the series with Hepatitis C virus, the half-maximal effective concentration (EC50) is 17 nM. The microsomal CLint in series [2] worked out at 16 µL/min/mg.

With `COc1ccc2c(O[C@@H]3C[C@H]4C(=O)N[C@]5(C(=O)NS(=O)(=O)C6CC6)C[C@H]5/C=C\CCCCN(C)C(=O)[C@@H]4C3)cc(-c3nc(C(C)C)cs3)nc2c1Cl`, the Ki in series [1] worked out at 0.1 nM. Besides, the EC50 in the series on Hepatitis C virus turned out to be 2.9 nM. Further, the microsomal CLint in series [2] is 9 µL/min/mg.

With `CCc1c(OC)ccc2c(O[C@@H]3C[C@H]4C(=O)N[C@]5(C(=O)NS(=O)(=O)C6CC6)C[C@H]5/C=C\CCCCN(C)C(=O)[C@@H]4C3)cc(-c3nc(C(C)C)cs3)nc12`, in series [1], the inhibition constant (Ki) amounted to 3.1 nM. Besides, in the series with Hepatitis C virus, the EC50 turned out to be 66 nM.

On to `COc1ccc2c(O[C@@H]3C[C@H]4C(=O)N[C@]5(C(=O)NS(=O)(=O)C6CC6)C[C@H]5/C=C\CCCCN(C)C(=O)[C@@H]4C3)cc(-c3nccs3)nc2c1`, for which, in series [1], the inhibitory constant (Ki) was 0.2 nM. Besides, the EC50 with Hepatitis C virus came out at 11 nM. In addition, the intrinsic clearance (microsomal CLint) in [2] stood at 38 µL/min/mg.

Take `COc1ccc2c(O[C@@H]3C[C@H]4C(=O)N[C@]5(C(=O)NS(=O)(=O)C6CC6)C[C@H]5/C=C\CCCCN(C)C(=O)[C@@H]4C3)cc(-c3cccc(C(C)C)n3)nc2c1C`: the Ki in [1] is 0.3 nM. Also, the EC50 in the series with Hepatitis C virus turned out to be 6.8 nM. For the same compound, the microsomal CLint in series [2] was < 6 µL/min/mg. For the same compound, the clearance in series [4] is 23.3 mL/min/kg. Moreover, the Vd in [5] is 0.7 L/kg. The exposure (AUC) was 1.36 µM·h in series [6] and 1.4 µM·h in series [8]. Also, the concentration in series [9] peaked (Cmax) at 300 nM. The time to peak (Tmax) in series [10] stood at 2 h. In series [11], this compound gave a half-life of 348 min. Moreover, in series [12], the bioavailability was determined as 31%.

On to `COc1ccc2c(O[C@@H]3C[C@H]4C(=O)N[C@]5(C(=O)NS(=O)(=O)C6CC6)C[C@H]5/C=C\CCCCN(C)C(=O)[C@@H]4C3)cc(-c3csc(NC(C)C)n3)nc2c1`, for which the inhibition constant Ki in [1] is 1.4 nM. Further, in the series with Hepatitis C virus, the EC50 was determined as 17 nM. Further, the intrinsic clearance (microsomal CLint) in series [2] was found to be 15 µL/min/mg.

In the case of `COc1ccc2c(O[C@@H]3C[C@H]4C(=O)N[C@]5(C(=O)NS(=O)(=O)C6CC6)C[C@H]5/C=C\CCCCN(C)C(=O)[C@@H]4C3)cc(-c3nc(C(C)C)cs3)nc2c1C` [SIMEPREVIR], in [1], the inhibitory constant (Ki) stood at 0.36 nM. In addition, in the series with Hepatitis C virus, the half-maximal effective concentration (EC50) turned out to be 7.8 nM. Moreover, in [2], the intrinsic clearance (microsomal CLint) was < 6 µL/min/mg. For the same compound, the clearance in [4] was 8.42 mL/min/kg. Further, the Vd in series [5] is 0.49 L/kg. Also, the AUC in series [6] was 5.21 µM·h; in series [8] it was 2.79 µM·h. Besides, the Kp at 6 h turned out to be 63.5 in [14] and 32 in series [15]. In addition, in [9], the maximum concentration (Cmax) was determined as 730 nM. In series [10], the Tmax was 3 h. The same compound gave a half-life in [11] of 168 min. The bioavailability in series [12] was 11%.
